The test system of data set [1] is Hs578T. As to the kind of experiment: Cell vitality assay (ATP assay, CellTiter-Glo). The note with it: Homo sapiens, Hs-578T; HS578T cell line, 72 h; Table Ib; read-out: IC50 ATP-Assay HS578T after 72 h. The format is cell-based. As for the experimental part:
The CellTiter-Glo® Luminescent Cell Viability Assay (Promega Corporation. Madison, Wis., USA) is method a determining the number of viable cells in culture based on quantification of the ATP being present which is an indicator of metabolically active cells was used according to manufacturers protocol, In detail the assay was performed in a 96 well format were 1000 cells/well were incubated with indicated compound at concentration of 12.5 μM, 6.25 μM, 3.125 μM, 1.56 μM, 0.78 μM, 0.39 μM, 0.195 μM as well as DMSO control for 72 h in 100 μl cell culture medium. IC50 values were calculated as 50% of ATP amount compared to DMSO control.
Protocol for the CellTiter-Glo® Luminescent Cell Viability Assay • 1. Prepare opaque-walled multiwell plates with mammalian cells in culture medium, 100 μl per well for 96-well plates • 2. Prepare control wells containing medium without cells to obtain a value for background luminescence. • 3. Add the compound to be tested to experimental wells, and incubate according to culture protocol. • 4. Equilibrate the plate and its contents at room temperature for approximately 30 minutes. • 5. Add a volume of CellTiter-Glo® Reagent (Promega Corporation. Madison, Wis.) equal to the volume of cell culture medium present in each well. • 6. Mix contents for 2 minutes on an orbital shaker to induce cell lysis. • 7. Allow the plate to incubate at room temperature for 10 minutes to stabilize luminescent signal. • 8. Record luminescence on Microplate Luminometer LB96V (Berthold Tchnologies, Bad Wildbad, Germany). An integration time of 0.1 and 1 second per well
On the technique in general: ATP-based viability assays read luminescence as a measure of living cells.

Data set [2] has as its system Hs578T. The experiment in a line: Wound healing migration assay. In kind it is cell-based. The following applies: Homo sapiens, Hs-578T; HS578T cell line; Table Ib. As for the experimental part: This method mimics cell migration during wound healing in vivo. The basic steps involve creating a “wound” in a cell monolayer, capturing the images at the beginning and at regular intervals during cell migration to close the wound, and comparing the images to quantify the migration rate of the cells. In detail, 150000 cell/24 well have been seeded and allowed to form a monolayer overnight. Subsequently a “wound” or “scratch” has been performed with a 1000 μl pipette tip. The STDV of wound size is normally below 10% at time point t0. The assay was stopped by fixation with 0.05% Crystal violet/20% methanol when control scratches were closed. The assay was terminated between 48 h and 72 h depending on the migration potential of the indicated cell line. The “wounds” were visualized with a Zeiss Axiovert S100 microscope (Carl Zeiss UK, Welwyn Garden City, UK). The tested compounds were used at 12.5 μM, 6.25, 3.125 μM and DMSO control. IC50 values have been calculated as 50% wound size in between t0 and t48 or t72.

For data set [3], the system named is Hs578T. The experiment in a line: Matrigel outgrowth assay/branching assay. The following applies: Homo sapiens, Hs-578T; HS578T cell line; Table Ib; read-out: Total branching inhibition in Matrigel HS578T. In kind it is cell-based. How it is done: The Matrigel outgrowth assay is based on the ability of tumor cell to penetrate a solid gel of extracellular matrix proteins mimicking the metastasis formation in vivo. While cells with low invasive potential appear as roundish cell or cell cluster, cells with high invasive potential penetrate the Matrigel and form polymorphic structures. In detail 65 μl of Matrigel matrix (Matrigel™ Matrix, BD Biosciences, Bedford, Mass., USA) with a concentration of 3 mg/ml have been polymerized in 96 well plates for 1 h at 37° C. Subsequently 5000 cell/well were seeded into each well containing cell culture medium and indicated compound with concentrations of 3.125 μM, 1.56 μM and 0.78 μM as well as DMSO control. After 48 h, 72 h and 96 h images of cell were taken on an inverted microscope using a 5× objective (Zeiss Axiovert S100 microscope Carl Zeiss UK, Welwyn Garden City, UK). Only compound concentrations were total branching inhibition was evident were accounted as positive. Method was used as previously described, with some modifications (Thompson E W, et al. Association of increased basement membrane invasiveness with absence of estrogen receptor and expression of vimentin in human breast cancer cell lines. J Cell Physiol 1992; 150:534-44).

By melting point is commonly meant the temperature, or range, at which the solid turns liquid. The compound `CCOC(=O)COc1cc2nccc(Oc3ccc(NS(=O)(=O)c4ccccc4F)cc3F)c2cc1OC` [Example 92, {4-[2-Fluoro-4-(2-fluoro-benzenesulfonylamino)-phenoxy]-6-methoxy-quinolin-7-yloxy}-acetic acid ethyl ester] registered a melting point of 87 to 89 °C. In addition, the IC50 with Hs578T [1] is at most 12.5 µM. For the same compound, the IC50 in the data set with Hs578T [2] was 12.5 to 50 µM. Further, the IC50 in the data set with Hs578T [3] was in the range of 10 to 25 µM.
`COc1cc2c(Oc3ccc(NS(=O)(=O)c4ccccc4C(F)(F)F)cc3F)ccnc2cc1OCCCNC(=O)OC(C)(C)C` [Example 120, (3-{4-[2-Fluoro-4-(2-trifluoromethyl-benzenesulfonylamino)-phenoxy]-6-methoxy-quinolin-7-yloxy}-propyl)-carbamic acid tert-butyl ester]: the melting point lay in the range of 80 to 82 °C. The IC50 with Hs578T [1] lay within 12.5 to 50 µM. The compound further displayed an IC50 in the data set on Hs578T [2] of 12.5 to 50 µM. Besides, the IC50 in the data set with Hs578T [3] was 10 to 25 µM.
Consider `COc1cc2c(Oc3ccc(NS(=O)(=O)c4cc(F)ccc4F)cc3F)ccnc2cc1OCCCNC(=O)OC(C)(C)C` [Example 121, (3-{4-[4-(2,5-Difluoro-benzenesulfonylamino)-2-fluoro-phenoxy]-6-methoxy-quinolin-7-yloxy}-propyl)-carbamic acid tert-butyl ester], for which the melting point was 115 to 118 °C. Further, the IC50 in the data set on Hs578T [1] was 12.5 to 50 µM. Moreover, the IC50 in the data set on Hs578T [2] was in the range of 12.5 to 50 µM. For the same compound, the IC50 in the data set on Hs578T [3] is 10 to 25 µM.
Compound `COc1cc2c(Oc3cccc(NS(=O)(=O)c4c(F)cccc4F)c3)ccnc2cc1OCCCN1CCN(C)CC1` [Example 125, 2,6-Difluoro-N-(3-{6-methoxy-7-[3-(4-methyl-piperazin-1-yl)-propoxy]-quinolin-4-yloxy}-phenyl)-benzenesulfonamide] returned a melting point of 171 to 172 °C. For the same compound, the IC50 in the data set on Hs578T [1] was at most 12.5 µM. This compound registered an IC50 with Hs578T [2] of at most 12.5 µM. In the data set on Hs578T [3], the IC50 was in the range of 10 to 25 µM.
Compound `COc1cc2c(Oc3cccc(NS(=O)(=O)c4ccccc4OC(F)(F)F)c3)ccnc2cc1OCCCN1CCN(C)CC1` [Example 126, N-(3-{6-Methoxy-7-[3-(4-methyl-piperazin-1-yl)-propoxy]-quinolin-4-yloxy}-phenyl)-2-trifluoromethoxy-benzenesulfonamide] gave a melting point of 164 to 166 °C. The IC50 with Hs578T [1] was at most 12.5 µM. The compound also displayed an IC50 in the data set with Hs578T [2] of at most 12.5 µM. Besides, the IC50 with Hs578T [3] was in the range of 10 to 25 µM.
On to `COc1cc2c(Oc3cccc(NS(=O)(=O)c4cccs4)c3)ccnc2cc1OCCCN1CCN(C)CC1` [Example 129, Thiophene-2-sulfonic acid (3-{6-methoxy-7-[3-(4-methyl-piperazin-1-yl)-propoxy]-quinolin-4-yloxy}-phenyl)-amide], for which the melting point was 188 to 189 °C. Also, the IC50 with Hs578T [1] is at most 12.5 µM. Besides, the IC50 with Hs578T [2] is at most 12.5 µM. Besides, the IC50 in the data set with Hs578T [3] was at most 10 µM.
On to `COc1cc2c(Oc3cccc(NS(=O)(=O)c4ccc(Cl)s4)c3)ccnc2cc1OCCCN1CCN(C)CC1` [Example 130, 5-Chloro-thiophene-2-sulfonic acid (3-{6-methoxy-7-[3-(4-methyl-piperazin-1-yl)-propoxy]-quinolin-4-yloxy}-phenyl)-amide], for which the melting point lay within 162 to 163 °C. Moreover, the IC50 in the data set on Hs578T [1] was at most 12.5 µM. The compound further came in with an IC50 in the data set with Hs578T [2] of 12.5 to 50 µM. Besides, in the data set with Hs578T [3], the IC50 was at most 10 µM.
In the same order, the values of `COc1cc2c(Oc3cccc(NS(=O)(=O)c4ccc(C)s4)c3)ccnc2cc1OCCCN1CCN(C)CC1` [Example 131, 5-Methyl-thiophene-2-sulfonic acid (3-{6-methoxy-7-[3-(4-methyl-piperazin-1-yl)-propoxy]-quinolin-4-yloxy}-phenyl)-amide] are 147 to 149 °C, at most 12.5 µM, 12.5 to 50 µM and 10 to 25 µM.
In the same order, the values of `COc1cc2c(Oc3cccc(NS(=O)(=O)c4sc(NC(C)=O)nc4C)c3)ccnc2cc1OCCCN1CCN(C)CC1` [Example 132, N-[5-(3-{6-Methoxy-7-[3-(4-methyl-piperazin-1-yl)-propoxy]-quinolin-4-yloxy}-phenylsulfamoyl)-4-methyl-thiazol-2-yl]-acetamide] are 148 to 150 °C, 12.5 to 50 µM, 12.5 to 50 µM and 10 to 25 µM.
In the same order, the values of `COc1cc2c(Oc3cccc(NS(=O)(=O)c4ccsc4)c3)ccnc2cc1OCCCN1CCN(C)CC1` [Example 133, Thiophene-3-sulfonic acid (3-{6-methoxy-7-[3-(4-methyl-piperazin-1-yl)-propoxy]-quinolin-4-yloxy}-phenyl)-amide] are 176 to 178 °C, at most 12.5 µM, at most 12.5 µM and at most 10 µM.
`COC(=O)c1sccc1S(=O)(=O)Nc1cccc(Oc2ccnc3cc(OCCCN4CCN(C)CC4)c(OC)cc23)c1` [Example 135, 3-(3-{6-Methoxy-7-[3-(4-methyl-piperazin-1-yl)-propoxy]-quinolin-4-yloxy}-phenylsulfamoyl)-thiophene-2-carboxylic acid methyl ester] came in with a melting point of 84 to 86 °C. In addition, the IC50 with Hs578T [1] is 12.5 to 50 µM. In addition, the IC50 with Hs578T [2] lay in the range of 12.5 to 50 µM. The IC50 in the data set on Hs578T [3] lay in the range of 10 to 25 µM.
As to `COc1cc2c(Oc3cccc(NS(=O)(=O)c4ccco4)c3)ccnc2cc1OCCCN1CCN(C)CC1` [Example 137, Furan-2-sulfonic acid (3-{6-methoxy-7-[3-(4-methyl-piperazin-1-yl)-propoxy]-quinolin-4-yloxy}-phenyl)-amide], the melting point was 176 to 177 °C. Further, the IC50 with Hs578T [1] fell in the range of 12.5 to 50 µM. For the same compound, the IC50 in the data set with Hs578T [2] lay within 12.5 to 50 µM. Further, the IC50 with Hs578T [3] fell in the range of 10 to 25 µM.
For the compound `COc1cc2c(Oc3cccc(NS(=O)(=O)c4c(C)noc4C)c3)ccnc2cc1OCCCN1CCN(C)CC1` [Example 138, 3,5-Dimethyl-isoxazole-4-sulfonic acid (3-{6-methoxy-7-[3-(4-methyl-piperazin-1-yl)-propoxy]-quinolin-4-yloxy}-phenyl)-amide], the melting point lay in the range of 200 to 202 °C. Besides, in the data set on Hs578T [1], the IC50 lay in the range of 12.5 to 50 µM. The IC50 in the data set with Hs578T [2] was 12.5 to 50 µM. For the same compound, the IC50 with Hs578T [3] was 10 to 25 µM.
In turn, `COc1cc2c(Oc3cccc(NS(=O)(=O)c4ccn(C)n4)c3)ccnc2cc1OCCCN1CCN(C)CC1` [Example 139, 1-Methyl-1H-pyrazole-3-sulfonic acid (3-{6-methoxy-7-[3-(4-methyl-piperazin-1-yl)-propoxy]-quinolin-4-yloxy}-phenyl)-amide] showed a melting point of 87 to 89 °C. For the same compound, in the data set with Hs578T [1], the IC50 lay in the range of 12.5 to 50 µM. In addition, the IC50 with Hs578T [2] fell in the range of 12.5 to 50 µM. For the same compound, in the data set on Hs578T [3], the IC50 was 10 to 25 µM.
As for `COc1cc2c(Oc3ccc(NS(=O)(=O)c4cnc(C)[nH]4)cc3F)ccnc2cc1OCCCN1CCOCC1` [Example 169, 2-Methyl-3H-imidazole-4-sulfonic acid {3-fluoro-4-[6-methoxy-7-(3-morpholin-4-yl-propoxy)-quinolin-4-yloxy]-phenyl}-amide], the IC50 in the data set with Hs578T [1] lay in the range of 12.5 to 50 µM; with Hs578T [2] it was 12.5 to 50 µM; with Hs578T [3] it was 10 to 25 µM.
On to `COc1cc2c(Oc3cc(NS(=O)(=O)c4cc(F)ccc4F)ccc3F)ccnc2cc1OCCCN1CCC(C)CC1` [Example 187, 2,5-Difluoro-N-(4-fluoro-3-{6-methoxy-7-[3-(4-methyl-piperidin-1-yl)-propoxy]-quinolin-4-yloxy}-phenyl)-benzenesulfonamide], for which the IC50 in the data set with Hs578T [1] is at most 12.5 µM; with Hs578T [2] it was at most 12.5 µM; in the data set with Hs578T [3], at most 10 µM.

The record behind these values is patent US9169241B2, “Quinolinyloxyphenylsulfonamides” (Max-Planck-Gesellschaft Zur Forderung der Wissenschaften …, priority 2009, dated 2015).
